Measured values from publication PMC7614387 (Chemical communications (Cambridge, England), 2021).

Molecular target: T1, LptH (Pseudomonas aeruginosa, UniProt Q9HVV7)
T1 sequence (Q9HVV7 25-175): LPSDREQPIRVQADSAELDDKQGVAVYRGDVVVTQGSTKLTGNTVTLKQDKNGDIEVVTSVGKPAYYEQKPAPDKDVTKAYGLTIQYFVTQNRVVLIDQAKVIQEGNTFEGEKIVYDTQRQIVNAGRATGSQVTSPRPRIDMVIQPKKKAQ
Assay: native mass spectrometry
Type: biochemical, P. aeruginosa
Details: for Emax (in words): comparison within 2a derivatives

Structure (SMILES) | Emax (in words) (nMS) | further results
Clc1cc2c(c3ncccc13)OCN(CCc1ccccc1)C2 [1a] |  | Emax (pH 8, read-out: Emax, maximum achievable monomer mole fraction): 73 ± 2%
O=C(O)c1ccc(O)c2ncccc12 [2a, 5-carboxy-8-hydroxyquinoline] |  | increase in the monomer mole fraction (in words) (100 μM compound, nMS): minimal increase
COC(=O)CCCNC(=O)c1ccc(O)c2ncccc12 [2c] | highest Emax values of the series | 
COCOc1ccc(C(=O)NCCCC(=O)OC)c2cccnc12 [2e] | highest Emax values of the series | 
